Data published in paper PMC6770071, “XIAP as a Target of New Small Organic Natural Molecules Inducing Human Cancer Cell Death” (Cancers, 2019).
Values after ≈ are worked out from the molar mass of the structure shown.

Key:
PC-3 cells = assay: MTT cell viability assay, PC-3 prostate cancer cells; format: cell-based; details: Homo sapiens, 24 h
Experimental: Human U373 glioma, MCF7 breast cancer, A549 lung cancer and PC-3 prostate cancer cells were grown in Dulbecco’s Modified Eagle Medium (DMEM), supplemented with 10% foetal bovine serum, 2 mM glutamine, 100 U/mL penicillin/streptomycin, at 37 °C in a humidified atmosphere containing 5% CO2 (logarithmic growth phase, routine passages every 3 days). The human breast epithelial cell line MCF10 was cultured in DMEM/F12 Ham’s Mixture supplemented with 5% horse serum, epithelial growth factor 20 ng/mL, insulin 10 μg/mL, hydrocortisone 0.5 mg/mL, cholera toxin 100 ng/mL, and 100 U/mL penicillin/streptomycin. […]
U373, MCF7, A549, PC-3, HUVEC, and MCF10 cell viability was determined by MTT assay using published protocols. MTT absorbance was quantified spectrophotometrically using a Glomax Multi Detection System microplate reader (Promega, Milano, Italy).
Statistical significance of raw data between the groups in each experiment was evaluated using unpaired Student’s t-test (single comparisons) or one-way ANOVA followed by the Newman-Keuls post-test (multiple comparisons). The IC50 and Emax concentration were determined by non-linear regression curve analysis of the concentration-effect responses. […] The results were expressed as means ± standard error of mean (SEM) of the indicated n values.

caspase 7 = assay: Cleaved-caspase 7 western blot in MCF10 cells; format: cell-based, human; details: MCF10, 6 h; gibbilimbol B/eriopodol A 30 µg/mL, erioquinol 10 µg/mL
From the text: Using published protocols, MCF7 and MCF10 cells were homogenised in RIPA lysis buffer, supplemented with a cocktail of protease inhibitors (cOmplete; Roche Diagnostics, Milano, Italy). Equal amounts of proteins were separated by 4–20% SDS-polyacrylamide gel electrophoresis (Criterion TGX Stain-free precast gels and Criterion Cell system; Bio-Rad, Hercules, CA, USA) and transferred onto nitrocellulose membrane using a Bio-Rad Trans-Blot Turbo System. When indicated, the membranes were probed using the rabbit monoclonal anti-cleaved caspase 7 and anti-XIAP (Cell Signaling Technology) primary antibodies. After the incubation with the appropriate horseradish-peroxidase-conjugated secondary antibody (Cell Signaling Technology), bands were visualised using the Clarity Western ECL substrate with a ChemiDoc MP imaging system (Bio-Rad). To monitor for potential artefacts in loading and transfer among samples in different lanes, the blots were routinely treated with the Restore Western Blot Stripping Buffer (ThermoFisher Scientific) and re-probed with the goat anti-Lactate dehydrogenase (LDH)-A (Santa Cruz Biotechnology) and the mouse anti-vinculin primary antibodies. The stain-free gel was used as loading control as well. When appropriated, bands were quantified for densitometry using the Bio-Rad Image Lab software.
Figure S6. Western blot. […]

| Structure (SMILES) | IC50 (PC-3 cells) | activation of caspase 7 (caspase 7) |
| --- | --- | --- |
| CCCCCC/C=C\CCC1(O)C=CC(=O)C=C1 [Erioquinol, (Z)-4-(dec-3′-enyl)-4-hydroxycyclohexa-2,5-dien-1-one] | 2.21 µg/mL (≈ 8.9 µM) |  |
| CCCCCC/C=C/CCc1ccc(O)cc1 [Gibbilimbol B, (E)-4-(dec-3′-enyl)phenol] |  | activation of caspase 7 |
